Source: US20230286970A1, “NOVEL OXADIAZOLE-BASED SELECTIVE HDAC6 INHIBITORS” (ITALFARMACO S.P.A., priority 2020, published 2023)

Key:
recombinant human HDAC1 = recombinant human HDAC1 (Homo sapiens (Human), UniProt Q13547); experiment: Enzymatic screening, HDAC1 inhibition (fluorogenic FdL_G substrate); type: biochemical
In short: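 Recombinant human HDAC1 inhibition was measured fluorometrically using the FLUOR DE LYS-Green (FdL_G) substrate. Compounds at 8 doses (1% DMSO final) in Tris-HCl pH 8 buffer with NaCl, Tween-20 and glycerol were preincubated in triplicate with enzyme and 1 mg/mL BSA, then given substrate. Developer I plus 2 μM TSA was added, and fluorescence read after 25 minutes in the dark.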

recombinant human HDAC6 = recombinant human HDAC6 (Homo sapiens (Human), UniProt Q9UBN7); experiment: Enzymatic screening, HDAC6 inhibition (fluorogenic FdL_G substrate); type: biochemical
Chain of recombinant human HDAC6 (Q9UBN7 whole entry): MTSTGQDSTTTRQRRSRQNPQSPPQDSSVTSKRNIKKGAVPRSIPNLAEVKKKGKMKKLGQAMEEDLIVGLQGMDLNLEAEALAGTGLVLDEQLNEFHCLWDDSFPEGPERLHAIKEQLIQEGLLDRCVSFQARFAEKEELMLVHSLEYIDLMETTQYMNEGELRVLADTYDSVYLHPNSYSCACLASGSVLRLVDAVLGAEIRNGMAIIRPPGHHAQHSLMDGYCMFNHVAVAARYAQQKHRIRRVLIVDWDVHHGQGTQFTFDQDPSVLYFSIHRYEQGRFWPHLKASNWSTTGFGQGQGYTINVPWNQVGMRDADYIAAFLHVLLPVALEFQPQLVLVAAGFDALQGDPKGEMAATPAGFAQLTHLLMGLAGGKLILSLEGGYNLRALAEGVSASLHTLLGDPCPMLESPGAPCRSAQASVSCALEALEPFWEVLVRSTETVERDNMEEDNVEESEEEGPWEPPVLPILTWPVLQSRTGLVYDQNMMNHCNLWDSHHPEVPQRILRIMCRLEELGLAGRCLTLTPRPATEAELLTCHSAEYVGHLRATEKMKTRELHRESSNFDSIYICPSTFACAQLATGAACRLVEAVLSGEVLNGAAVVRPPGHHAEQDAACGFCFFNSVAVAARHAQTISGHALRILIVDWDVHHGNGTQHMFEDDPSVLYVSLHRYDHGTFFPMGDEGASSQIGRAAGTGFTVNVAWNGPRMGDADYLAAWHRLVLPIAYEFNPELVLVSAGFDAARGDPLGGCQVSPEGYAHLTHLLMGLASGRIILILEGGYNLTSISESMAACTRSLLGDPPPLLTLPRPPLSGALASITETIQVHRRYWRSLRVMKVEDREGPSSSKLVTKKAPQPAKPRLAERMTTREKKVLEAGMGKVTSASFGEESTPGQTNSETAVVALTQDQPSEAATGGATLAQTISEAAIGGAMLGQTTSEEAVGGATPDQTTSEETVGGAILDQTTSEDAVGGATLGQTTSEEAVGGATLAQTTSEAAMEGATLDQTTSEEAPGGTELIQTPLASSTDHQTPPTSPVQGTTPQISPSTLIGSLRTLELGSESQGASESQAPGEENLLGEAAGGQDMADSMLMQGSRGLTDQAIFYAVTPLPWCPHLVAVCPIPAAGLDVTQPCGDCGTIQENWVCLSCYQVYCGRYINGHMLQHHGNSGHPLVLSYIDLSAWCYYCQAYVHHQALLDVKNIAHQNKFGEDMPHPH
In short: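 Enzyme was preincubated with compound (8 doses, triplicate, 1% DMSO) in 25 mM Tris-HCl pH 8, 130 mM NaCl, 0.05% Tween-20, 10% glycerol, with BSA. A FLUOR DE LYS-Green substrate was then added, and fluorescence was read after developer plus 2 μM TSA.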

Chain of recombinant human HDAC1 (Q13547 whole entry): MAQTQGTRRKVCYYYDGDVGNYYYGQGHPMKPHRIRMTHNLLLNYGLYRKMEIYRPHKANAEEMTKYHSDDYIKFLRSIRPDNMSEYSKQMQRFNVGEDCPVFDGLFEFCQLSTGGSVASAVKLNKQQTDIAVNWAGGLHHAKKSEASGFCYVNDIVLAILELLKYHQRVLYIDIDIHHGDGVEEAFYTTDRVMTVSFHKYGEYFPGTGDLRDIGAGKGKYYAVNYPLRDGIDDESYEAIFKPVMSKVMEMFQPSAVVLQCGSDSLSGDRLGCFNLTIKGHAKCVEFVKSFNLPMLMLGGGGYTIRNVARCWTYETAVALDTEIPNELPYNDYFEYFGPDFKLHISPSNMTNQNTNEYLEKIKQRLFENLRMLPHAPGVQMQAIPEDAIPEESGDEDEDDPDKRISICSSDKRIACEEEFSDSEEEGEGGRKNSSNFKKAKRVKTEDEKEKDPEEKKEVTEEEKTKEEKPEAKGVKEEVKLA

| SMILES | IC50 (recombinant human HDAC1) [nM] | IC50 (recombinant human HDAC6) [nM] |
| --- | --- | --- |
| NCc1ccc(-c2nc(Cc3ccc(-c4nnc(C(F)F)o4)cc3)no2)cc1 [compound 191, (4-(3-(4-(5-(difluoromethyl)-1,3,4-oxadiazol-2-yl)benzyl)-1,2,4-oxadiazol-5-yl)phenyl)methanamine] | > 200000 | 102 |
| Nc1cccc(-c2cn(Cc3ccc(-c4nnc(C(F)F)o4)cc3)nn2)c1 [compound 192, 3-(1-(4-(5-(difluoromethyl)-1,3,4-oxadiazol-2-yl)benzyl)-1H-1,2,3-triazol-4-yl)aniline] | > 200000 | 102 |
| O=C1Nc2cc(-c3nnn(Cc4ccc(-c5nnc(C(F)F)o5)cc4)n3)ccc2NC12CCCC2 [compound 195, 6′-(2-(4-(5-(difluoromethyl)-1,3,4-oxadiazol-2-yl)benzyl)-2H-tetrazol-5-yl)-1′,4′-dihydro-3′H-spiro[cyclopentane-1,2′-quinoxalin]-3′-one] | > 200000 | 104 |
| O=C(Nc1cc(-c2nnn(Cc3c(F)cc(-c4nnc(C(F)F)o4)cc3F)n2)ccc1OC(=O)N1CCOCC1)N1CCOCC1 [compound 196, 4-(2-(4-(5-(difluoromethyl)-1,3,4-oxadiazol-2-yl)-2,6-difluorobenzyl)-2H-tetrazol-5-yl)-2-(morpholine-4-carboxamido)phenyl morpholine-4-carboxylate] | > 200000 | 107 |
| Nc1ccc(-c2cn(Cc3ccc(-c4nnc(C(F)F)o4)nn3)nn2)cn1 [compound 198, 5-(1-((6-(5-(difluoromethyl)-1,3,4-oxadiazol-2-yl)pyridazin-3-yl)methyl)-1H-1,2,3-triazol-4-yl)pyridin-2-amine] | > 200000 | 109 |
| O=C(Nc1cncc(-c2nnn(Cc3ccc(-c4nnc(C(F)F)o4)cc3)n2)c1)N1CCOCC1 [compound 199, N-(5-(2-(4-(5-(difluoromethyl)-1,3,4-oxadiazol-2-yl)benzyl)-2H-tetrazol-5-yl)pyridin-3-yl)morpholine-4-carboxamide] | > 200000 | 109 |
| Nc1ncc(-c2cccc(-c3nnn(Cc4ccc(-c5nnc(C(F)F)o5)cc4)n3)c2)s1 [compound 200, 5-(3-(2-(4-(5-(difluoromethyl)-1,3,4-oxadiazol-2-yl)benzyl)-2H-tetrazol-5-yl)phenyl)thiazol-2-amine] | > 200000 | 113 |
| CN(Cc1ccncc1)Cc1ccc(-c2nnn(Cc3c(F)cc(-c4nnc(C(F)F)o4)cc3F)n2)cc1 [compound 201, N-(4-(2-(4-(5-(difluoromethyl)-1,3,4-oxadiazol-2-yl)-2,6-difluorobenzyl)-2H-tetrazol-5-yl)benzyl)-N-methyl-1-(pyridin-4-yl)methanamine] | > 200000 | 115 |
| O=C1CCc2ccc(-c3nnn(Cc4ccc(-c5nnc(C(F)F)o5)cc4)n3)cc21 [compound 203, 6-(2-(4-(5-(difluoromethyl)-1,3,4-oxadiazol-2-yl)benzyl)-2H-tetrazol-5-yl)-2,3-dihydro-1H-inden-1-one] | > 200000 | 118 |
| CN(Cc1ccc(-c2nc(Cc3c(F)cc(-c4nnc(C(F)F)o4)cc3F)no2)cc1)C(=O)C(F)F [compound 206, N-(4-(3-(4-(5-(difluoromethyl)-1,3,4-oxadiazol-2-yl)-2,6-difluorobenzyl)-1,2,4-oxadiazol-5-yl)benzyl)-2,2-difluoro-N-methylacetamide] | > 200000 | 127 |
| O=C1CCc2c1cccc2-c1nnn(Cc2ccc(-c3nnc(C(F)F)o3)cc2)n1 [compound 208, 4-(2-(4-(5-(difluoromethyl)-1,3,4-oxadiazol-2-yl)benzyl)-2H-tetrazol-5-yl)-2,3-dihydro-1H-inden-1-one] | > 200000 | 132 |
| O=C1Nc2cc(-c3nnn(Cc4ccc(-c5nnc(C(F)F)o5)cc4)n3)ccc2NC12CCCCC2 [compound 209, 6′-(2-(4-(5-(difluoromethyl)-1,3,4-oxadiazol-2-yl)benzyl)-2H-tetrazol-5-yl)-1′,4′-dihydro-3′H-spiro[cyclohexane-1,2′-quinoxalin]-3′-one] | > 200000 | 133 |
| Cn1c(=O)[nH]c2cc(-c3nnn(Cc4ccc(-c5nnc(C(F)F)o5)cc4)n3)ccc21 [compound 210, 5-(2-(4-(5-(difluoromethyl)-1,3,4-oxadiazol-2-yl)benzyl)-2H-tetrazol-5-yl)-1-methyl-1,3-dihydro-2H-benzo[d]imidazol-2-one] | > 200000 | 138 |
| CN1CCN(c2ccc(-c3nnn(Cc4ccc(-c5nnc(C(F)F)o5)cc4)n3)cn2)CC1 [compound 212, 2-(difluoromethyl)-5-(4-((5-(6-(4-methylpiperazin-1-yl)pyridin-3-yl)-2H-tetrazol-2-yl)methyl)phenyl)-1,3,4-oxadiazole] | > 200000 | 147 |
| CN1CCN(c2ccc(-c3nnn(Cc4ccc(-c5nnc(C(F)F)o5)cc4)n3)cc2)CC1 [compound 213, 2-(difluoromethyl)-5-(4-((5-(4-(4-methylpiperazin-1-yl)phenyl)-2H-tetrazol-2-yl)methyl)phenyl)-1,3,4-oxadiazole] | > 200000 | 150 |
| Fc1cc(-c2nnc(C(F)F)o2)cc(F)c1Cn1cc(-c2ccc(CN3CC(C(F)(F)F)C3)cc2)nn1 [compound 214, 2-(3,5-difluoro-4-((4-(4-((3-(trifluoromethyl)azetidin-1-yl)methyl)phenyl)-1H-1,2,3-triazol-1-yl)methyl)phenyl)-5-(difluoromethyl)-1,3,4-oxadiazole] | > 200000 | 151 |
| CN(Cc1ccncc1)Cc1ccc(-c2nnn(Cc3ccc(-c4nnc(C(F)F)o4)cc3)n2)cc1 [compound 215, N-(4-(2-(4-(5-(difluoromethyl)-1,3,4-oxadiazol-2-yl)benzyl)-2H-tetrazol-5-yl)benzyl)-N-methyl-1-(pyridin-4-yl)methanamine] | > 200000 | 151 |
| CC(C)(C)OC(=O)N1CCC2(CC1)C(=O)Nc1ccc(-c3cn(Cc4ccc(-c5nnc(C(F)F)o5)cc4)nn3)cc12 [compound 216, tert-butyl 5-(1-(4-(5-(difluoromethyl)-1,3,4-oxadiazol-2-yl)benzyl)-1H-1,2,3-triazol-4-yl)-2-oxospiro[indoline-3,4′-piperidine]-1′-carboxylate] | > 200000 | 151 |
| CC(C)(c1ccncc1)c1nnn(Cc2ccc(-c3nnc(C(F)F)o3)cc2)n1 [compound 219, 2-(difluoromethyl)-5-(4-((5-(2-(pyridin-4-yl)propan-2-yl)-2H-tetrazol-2-yl)methyl)phenyl)-1,3,4-oxadiazole] | > 200000 | 156 |
| FC(F)c1nnc(-c2ccc(Cn3nnc(-c4ccco4)n3)cc2)o1 [compound 220, 2-(difluoromethyl)-5-(4-((5-(furan-2-yl)-2H-tetrazol-2-yl)methyl)phenyl)-1,3,4-oxadiazole] | > 200000 | 157 |
| Nc1ccc(-c2cn(C(Cc3ccccc3)c3ccc(-c4nnc(C(F)F)o4)cc3)nn2)cn1 (stereo not shown) [compound 221, 5-(1-(1-(4-(5-(difluoromethyl)-1,3,4-oxadiazol-2-yl)phenyl)-2-phenylethyl)-1H-1,2,3-triazol-4-yl)pyridin-2-amine] | > 200000 | 157 |
| FC(F)c1nnc(-c2ccc(Cn3cc(-c4ccc5cn[nH]c5c4)nn3)cc2)o1 [compound 222, 2-(4-((4-(1H-indazol-6-yl)-1H-1,2,3-triazol-1-yl)methyl)phenyl)-5-(difluoromethyl)-1,3,4-oxadiazole] | > 200000 | 160 |
| NC(=O)c1cccc(-c2cn(Cc3ccc(-c4nnc(C(F)F)o4)cc3)cn2)c1 [compound 223, 3-(1-(4-(5-(difluoromethyl)-1,3,4-oxadiazol-2-yl)benzyl)-1H-imidazol-4-yl)benzamide] | > 200000 | 161 |
| Fc1cc(-c2nnn(Cc3ccc(-c4nnc(C(F)F)o4)cc3)n2)ccc1N1CCNCC1 [compound 224, 2-(difluoromethyl)-5-(4-((5-(3-fluoro-4-(piperazin-1-yl)phenyl)-2H-tetrazol-2-yl)methyl)phenyl)-1,3,4-oxadiazole] | > 200000 | 162 |
| O=c1[nH]c2cc(-c3nnn(Cc4ccc(-c5nnc(C(F)F)o5)cc4)n3)ccc2o1 [compound 225, 5-(2-(4-(5-(difluoromethyl)-1,3,4-oxadiazol-2-yl)benzyl)-2H-tetrazol-5-yl)benzo[d]oxazol-2 (3H)-one] | > 200000 | 169 |
| O=C(Nc1cccc(-c2cnn(Cc3ccc(-c4nnc(C(F)F)o4)cc3)c2)c1)N1CCOCC1 [compound 227, N-(3-(1-(4-(5-(difluoromethyl)-1,3,4-oxadiazol-2-yl)benzyl)-1H-pyrazol-4-yl)phenyl)morpholine-4-carboxamide] | > 200000 | 172 |
| O=C(Nc1cccc(-c2nc(Cc3ccc(-c4nnc(C(F)F)o4)cc3)no2)c1)N1CCOCC1 [compound 228, N-(3-(3-(4-(5-(difluoromethyl)-1,3,4-oxadiazol-2-yl)benzyl)-1,2,4-oxadiazol-5-yl)phenyl)morpholine-4-carboxamide] | > 200000 | 178 |
| CC(c1ccc(-c2nnc(C(F)F)o2)cc1)n1nnc(-c2ccc3c(c2)C(=O)N(C)CC3)n1 (stereo not shown) [compound 229, 7-(2-(1-(4-(5-(difluoromethyl)-1,3,4-oxadiazol-2-yl)phenyl)ethyl)-2H-tetrazol-5-yl)-2-methyl-3,4-dihydroisoquinolin-1 (2H)-one] | > 200000 | 179 |
| O=C(c1ccc(-c2nnn(Cc3ccc(-c4nnc(C(F)F)o4)cc3)n2)cc1)N1CCOCC1 [compound 230, (4-(2-(4-(5-(difluoromethyl)-1,3,4-oxadiazol-2-yl)benzyl)-2H-tetrazol-5-yl)phenyl)(morpholino)methanone] | > 200000 | 187 |
